Drawing on PubChem BioAssay (NCI), this text covers TGI for 12 compounds.

Test systems include SF-539 CNS; SNB-19 CNS; SN12C renal; CAKI-1 renal; MALME-3M melanoma; EKVX NSCLC; K-562 leukemia; KM12 colon; M14 melanoma; SNB-75 CNS.
Test in all cases: NCI anticancer screen, dose series, 48 h

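Growth conditions: 96-well plates. Treatment: test compound, 48 hours, 5 concentrations. Analysis: linear interpolation between bracketing concentrations; unreached endpoints set to highest concentration. At the TGI there is no net growth.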

With `Nc1ccc(Oc2ccc(C34CC5CC6C3CC3CC4C(C5)C6(c4ccc(Oc5ccc(N)c(O)c5)cc4)C3)cc2)cc1O`, the TGI in the experiment with SF-539 CNS came to 0.652 µM; in the experiment with SNB-19 CNS it was 14.7 µM; in the experiment on SN12C renal, 11.4 µM; with CAKI-1 renal it was 27.7 µM; with MALME-3M melanoma, 30.4 µM; in the experiment with EKVX NSCLC it was 22.2 µM. The results for the TGI with K-562 leukemia, in the experiment with KM12 colon and in the experiment with M14 melanoma were > 54.8 µM, 47.8 µM and 8.71 µM, respectively.
For the compound `CCN1CCC(O)(c2ccc(Oc3ccc(C)cc3)cc2)C(C(=O)c2ccc(Oc3ccc(C)cc3)cc2)C1` (stereo not drawn), the TGI with SNB-19 CNS was 27.2 µM; with SNB-75 CNS, 20.4 µM; with SN12C renal, 30.7 µM; in the experiment with CAKI-1 renal it was 25.8 µM; in the experiment on MALME-3M melanoma it was 29.7 µM; in the experiment on EKVX NSCLC it was 29 µM. The values for the TGI with K-562 leukemia, in the experiment with KM12 colon and with M14 melanoma were > 100 µM, 17.8 µM and 30.6 µM, respectively.
Turning to `COC(=O)[C@H](Cc1ccccc1)NP(=O)(O)OCC1C=CC(n2cc(C)c(=O)[nH]c2=O)O1` (stereo partly drawn), the TGI in the experiment with SNB-19 CNS, in the experiment on SNB-75 CNS, in the experiment with SN12C renal, in the experiment on CAKI-1 renal, with MALME-3M melanoma and in the experiment with EKVX NSCLC was > 100 µM throughout. Further, the TGI with K-562 leukemia, with KM12 colon and in the experiment on M14 melanoma was > 100 µM in each case.
Take `C#CC(O)/C=C/C(O)CCCC(O)CC#CC(O)C#CC(O)CCCC(O)/C=C/CCCC(=O)CCCCCCCCCCCCCCCC(O)C(O)C#CC(=O)O` (stereo not drawn): the TGI in the experiment with SNB-19 CNS, in the experiment with SNB-75 CNS, with SN12C renal, with CAKI-1 renal, in the experiment with MALME-3M melanoma and in the experiment with EKVX NSCLC was > 50 µM throughout. The TGI in the experiment on K-562 leukemia, with KM12 colon and in the experiment with M14 melanoma was > 50 µM in each case.
Regarding `CCOC(=O)CSc1[nH]c(NC(=S)Nc2ccccc2)c(C(N)=O)c1C(N)=O`, the TGI in the experiment with SNB-75 CNS, with SN12C renal, with CAKI-1 renal, in the experiment with MALME-3M melanoma, in the experiment on EKVX NSCLC and in the experiment with K-562 leukemia was > 10 µM in each case. Moreover, the TGI in the experiment on KM12 colon and in the experiment with M14 melanoma was > 10 µM in each case.
Take `C=CCCCCCCCCCOC1C=CC(OC(C)=O)C(COC(C)=O)O1` (stereo not drawn): the TGI with SF-539 CNS, with SNB-19 CNS, with SN12C renal, with CAKI-1 renal, with MALME-3M melanoma and in the experiment on EKVX NSCLC was > 100 µM throughout. For the same compound, the TGI in the experiment with K-562 leukemia is 17.4 µM; with KM12 colon, > 100 µM; in the experiment on M14 melanoma it was 88.9 µM.
For the compound `Cc1ccc(S(=O)(=O)NC(=O)NC(Cc2ccc(O)c(O)c2)C(=O)O)cc1` (stereo not drawn), the TGI with SNB-19 CNS, in the experiment on SN12C renal, with CAKI-1 renal, with MALME-3M melanoma, with EKVX NSCLC and with K-562 leukemia was > 100 µM throughout. Also, the TGI in the experiment with KM12 colon and with M14 melanoma was > 100 µM each time.
As to `CCN(CC)CCCOc1cc2c(cc1OC)C(=O)N1CCC[C@H]1C=N2`, the TGI with SF-539 CNS was > 100 µM; in the experiment on SNB-19 CNS it was > 100 µM; with SN12C renal, > 100 µM; with CAKI-1 renal, 44.3 µM; with MALME-3M melanoma, > 100 µM; with EKVX NSCLC, > 100 µM. In addition, the TGI is > 100 µM in the experiment on K-562 leukemia, 48.4 µM with KM12 colon and > 100 µM with M14 melanoma.
As for `O=[N+]([O-])c1ccc2c(c1)c(S(=O)(=O)O)cc1nonc12`, the TGI with SF-539 CNS, with SNB-19 CNS, in the experiment with SN12C renal, in the experiment on CAKI-1 renal, in the experiment on MALME-3M melanoma and with EKVX NSCLC was > 100 µM in each case. Besides, the TGI in the experiment on K-562 leukemia, with KM12 colon and in the experiment on M14 melanoma was > 100 µM each time.
On to `c1ccc(C2=NCCc3cc4c(cc32)OCO4)cc1`, for which the TGI with SF-539 CNS, in the experiment with SNB-19 CNS, in the experiment on SN12C renal, in the experiment on CAKI-1 renal, in the experiment with MALME-3M melanoma and with EKVX NSCLC was > 100 µM in each case. Further, the TGI with KM12 colon and in the experiment on M14 melanoma was > 100 µM in each case.
Take `NS(=O)(=O)c1nnc(NS(=O)(=O)c2ccccc2C(=O)O)s1`: the TGI in the experiment on SNB-19 CNS, with SN12C renal, in the experiment with CAKI-1 renal, in the experiment with MALME-3M melanoma, in the experiment with EKVX NSCLC and in the experiment with K-562 leukemia was > 100 µM in each case. The TGI with KM12 colon and with M14 melanoma was > 100 µM each time.
On to `CC(=O)OCC1=C(C)C[C@H]([C@@H](COC(C)=O)C2CCC3C4C[C@H]5O[C@]56CC=CC(=O)[C@]6(C)C4CC[C@@]32C)OC1=O` (stereo partly drawn), for which the TGI came to 7.72 µM in the experiment on SNB-19 CNS; 6.09 µM in the experiment on SNB-75 CNS; 1.18 µM in the experiment with SN12C renal; 2.64 µM with CAKI-1 renal; 0.963 µM in the experiment on MALME-3M melanoma; 1.36 µM in the experiment on EKVX NSCLC. Besides, the TGI in the experiment on KM12 colon was found to be 0.593 µM; with M14 melanoma it was 0.785 µM.
